{
  "source": "patent US9855346B2",
  "about": "“Fluorescent dye compositions and uses thereof” (Chang Gung University of Science and Technology, priority 2014, dated 2018)",
  "key": {"[1]": {"assay": "NMR line width of half-amplitude (mobility of CP)", "assay_type": "physicochemical", "conditions": "line width at half amplitude of methylene protons, 1H-NMR", "procedure": "The mobility of CP in the compositions was evaluated by NMR, by measuring the line widths of half-amplitude (Hz) of methylene protons. Compositions were diluted with deuterium oxide by 3-fold. Neat CP was diluted with chloroform-d. The compositions were loaded into NMR tubes and their ^1H-NMR spectra were examined by Avance 400 spectrometer (Bruker, Bremen, Germany).\nThe mobility of solid fatty ester in lipid cores of the CP-containing compositions was examined by proton NMR. The line width of signals for neat CP was 3.50 Hz."}, "[2]": {"assay": "In vivo real-time optical imaging after IV injection", "parameters": "species or system Sprague-Dawley rats", "conditions": "rats", "procedure": "Male Sprague-Dawley rats aged 8˜10 weeks was supplied by Lasco (Taipei, Taiwan). Animal experimental protocol was approved by the Institutional Animal Care and Use Committee of Chang Gung University, Taiwan. The rats had free access to water and food at all time. The rats were anesthetized and injected with the compositions of the present invention or the control solution (dimethyl sulfoxide:Tween 80:normal saline=4:2:4) at a DiR dose of 40 μg/kg via femoral vein. In vivo real-time imaging was acquired using Pearl® Impulse at NIR wavelength. Rats were sacrificed 4 h post-injection. The following organs were collected and washed with normal saline: skin, muscle, heart, lungs, liver, spleen, and kidneys. The fluorescence intensity in these organs was assessed Ex Vivo by Pearl® Impulse. In Vivo optical images were taken after ICG, control DiR solution (with 40% v/w dimethyl sulfoxide) and S1-S4 compositions were administered into the rats via intravenous (IV) injection."}},
  "data": [
    {"molecule": "CCCCCCCCCCCCCCCCOC(=O)CCCCCCCCCCCCCCC", "note": "[CP, Cetyl palmitate]", "values": [
      {"measurement": "Line width (Hz)", "setting": "[1]", "value": 3.50, "unit": "Hz"}
    ]},
    {"molecule": "CC1(C)C(/C=C/C=C/C=C/C=C2\\N(CCCCS(=O)(=O)O)c3ccc4ccccc4c3C2(C)C)=[N+](CCCCS(=O)(=O)[O-])c2ccc3ccccc3c21", "note": "[ICG, Indocyanine green]", "values": [
      {"measurement": "time post-injection at which fluorescence is detected in the liver (liver clearance)", "setting": "[2]", "value": "≤ 5", "unit": "min"},
      {"measurement": "imaging time", "setting": "[2]; fluorescence activity in large and small vessels", "value": "about 5 min"}
    ]}
  ]
}
